One test deals with FGFR1 (Homo sapiens (Human), UniProt P11362). The experiment in a line: TR-FRET kinase inhibition assay, FGFR1. The test is classed as biochemical. To be noted: ATP Km concentration (30 μM). Here is the method:
To measure the IC50 values of the compounds against FGFR1, FGFR2, FGFR3, FGFR4, and FGFR2 V564F at ATP Km concentrations by TR-FRET method.
TR-FRET (time-resolved fluorescence resonance energy transfer) method was used to detect the inhibitory activity of the compounds on FGFR1, FGFR2, FGFR3, FGFR4, and FGFR2 V564F kinase region fragments. The highest detection concentration of the compounds in 5 kinase experiments was 1000 nM, which was diluted in 3 folds, with a total of 11 concentrations (1000 nM to 0.017 nM). A kinase buffer (50 mM HEPES pH 7.5, 1 mM EGTA, 10 mM MgCl2, 2 mM DTT, and 0.01% Tween-20) was used to prepare 4× enzyme solution, 4× compound solutions diluted in gradient, and a 2×ATP/Peptide substrate solution. To a 384-well plate, 2.5 μL of enzyme solution and 2.5 μL of diluted […] compound solution were added, and 5 μL of 2×ATP/Peptide substrate solution was then added. After reacting at room temperature for 60 minutes for FGFR1, FGFR2, FGFR3, and FGFR2 V564F kinases, and 120 minutes for FGFR4 kinase, 10 μL of a 2× termination and detection mixed liquid prepared with 1×LANCE detection buffer with an EDTA concentration of 20 mM and a Europium-anti-phosphotyrosine (PT66) concentration of 2 nM was added to each well of the plate. After reacting at room temperature for 60 minutes for FGFR1, FGFR2, FGFR3, and FGFR4, and 30 minutes for FGFR2 V564F, the fluorescence signal value in each well of the plate was measured by a microplate reader.
1) Inhibition rate (%): Calculation was performed on the raw data (665 nm/620 nm reading ratio) according to the following formula to obtain the inhibition rate. Inhibition rate %=[(mean value in positive control well−value in sample well)/(mean value in positive control well−mean value in negative control well)]×100, wherein the positive control well was a reaction well without a compound […], and the negative control well was a reaction wells without an enzyme.
(§1) 2) Curve fitting: Log(inhibitor) vs. response—Variable slope (four parameters) in GraphPad Prism 6 was used for fitting equation analysis of the compound concentration and the corresponding inhibition rate, and the curve was fitted to obtain the IC50 values of the compounds.
Background: Time-resolved FRET reads energy transfer from a long-lived donor to a nearby acceptor.

For a further test, the target named is FGFR2 (Homo sapiens (Human), UniProt P21802). Briefly: TR-FRET kinase inhibition assay, FGFR2. The test is classed as biochemical. The following applies: ATP Km concentration (30 μM). The method in brief: (§2)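 Kinase-domain fragments in 50 mM HEPES pH 7.5 with 10 mM MgCl2, ATP at Km plus peptide substrate; 60 min reaction at room temperature, then EDTA/Eu-anti-phosphotyrosine (PT66) detection for 60 min (30 min for V564F). 11-point 3-fold dilutions from 1000 nM; IC50 from four-parameter fit of 665/620 nm ratio inhibition.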

For a further test, the target named is FGFR2 V564F (Homo sapiens (Human), UniProt P21802, V564F). The experiment in a line: TR-FRET kinase inhibition assay, FGFR2 V564F. The class given is biochemical. The following applies: ATP Km concentration (20 μM). The method in brief:
as §2

The next test concerns NCI-H716 cells. Briefly: CellTiter-Glo cell proliferation inhibition, NCI-H716. The class given is cell-based. To be noted: Homo sapiens, 72 h, read-out: NCI-H716 cell proliferation inhibition rate IC50. How it is done:
To evaluate inhibitory effects of the compounds on the proliferation of NCI-H716, SNU-16 and BaF3-FGFR2-BICC1 V564F cells by cell proliferation inhibition experiments.
CellTiter-Glo method was used to detect inhibitory effects of the compounds on the proliferation of NCI-H716, SNU-16 and BaF3 FGFR2-BICC1 V564F cells. The highest detection concentration of the compounds was 1000 nM, which was diluted in 3 folds, with a total of 9 concentrations (1000 nM to 0.15 nM). After the cells were plated at an appropriate density, compounds were added the next day and incubated for 72 h before detection using the […] detection kit.
1) Inhibition rate (%): Inhibition rate %=[(mean value in positive control well−value in sample well)/(mean value in positive control well−mean value in negative control well)]×100, wherein the positive control well was a reaction well without a compound […], and the negative control well was a reaction wells without an enzyme.
as §1
(In general: In ATP-based viability assays light output follows the ATP content of the culture.)

The subject of test [1] is BaF3 FGFR2-BICC1 V564F cells. The experiment in a line: CellTiter-Glo cell proliferation inhibition, BaF3 FGFR2-BICC1 V564F. The test is classed as cell-based. The following applies: Mus musculus, 72 h, read-out: BaF3 FGFR2-BICC1 V564F inhibitory activity IC50. The method in brief:
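Cells plated, compound added next day as 9-point 3-fold series from 1000 nM to 0.15 nM, incubated 72 h. Viability by CellTiter-Glo luminescence; IC50 from four-parameter variable-slope fit of percent inhibition.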

FGFR2 V564F, sequence (P21802 481-770 V564F): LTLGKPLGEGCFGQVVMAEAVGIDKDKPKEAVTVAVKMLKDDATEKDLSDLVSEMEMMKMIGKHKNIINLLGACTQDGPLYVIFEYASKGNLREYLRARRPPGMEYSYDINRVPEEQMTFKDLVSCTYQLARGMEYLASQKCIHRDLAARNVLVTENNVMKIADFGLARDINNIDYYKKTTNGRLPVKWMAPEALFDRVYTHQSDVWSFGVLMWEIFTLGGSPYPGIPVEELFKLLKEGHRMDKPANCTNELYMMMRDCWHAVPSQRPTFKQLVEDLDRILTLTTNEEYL
FGFR1, sequence (P11362 478-767): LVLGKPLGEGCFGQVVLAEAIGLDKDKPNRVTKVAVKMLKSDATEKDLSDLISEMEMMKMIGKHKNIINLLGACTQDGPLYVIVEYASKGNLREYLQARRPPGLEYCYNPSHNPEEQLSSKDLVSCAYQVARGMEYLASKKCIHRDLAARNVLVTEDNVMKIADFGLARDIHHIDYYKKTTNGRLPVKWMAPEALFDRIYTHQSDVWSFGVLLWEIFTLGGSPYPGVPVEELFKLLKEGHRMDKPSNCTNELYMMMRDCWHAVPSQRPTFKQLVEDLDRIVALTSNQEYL
FGFR2, sequence (P21802 481-770): as the sequence (P21802 481-770 V564F) above, with F84V counted along it

On to `C=CC(=O)N1CC[C@H](n2nc(C#Cc3cc4ncn(C)c4cc3Cl)c3c(N)ncc(C(=O)C4CC4)c32)C1` [Example 68, (S)-1-(3-(4-amino-3-((6-chloro-1-methyl-1H-benzo[d]imidazol-5-yl)ethynyl)-7-(cyclopropanecarbonyl)-1H-pyrazolo[4,3-c]pyridin-1-yl)pyrrolidin-1-yl)prop-2-en-1-one], for which the IC50 at FGFR1 turned out to be 2.4 nM; against FGFR2, 1.4 nM; at FGFR2 V564F, 0.3 nM; in the test on NCI-H716 cells, 1.42 nM; in test [1], 0.5 nM.

As to `C=CC(=O)N1CC[C@H](n2nc(C#Cc3ccc4csnc4c3)c3c(N)ncc(C(=O)C4CC4)c32)C1` [Example 91, (S)-1-(3-(4-amino-3-(benzo[c]isothiazole-6-ethynylene)-7-(cyclopropanecarbonyl)-1H-pyrazolo[4,3-c]pyridin-1-yl)pyrrolidine-1-methyl)prop-2-en-1-one], the IC50 on FGFR1 was found to be 3.9 nM; against FGFR2 it was 1 nM; against FGFR2 V564F, 1.1 nM; in the test with NCI-H716 cells it was 0.97 nM; in test [1], 0.8 nM.

As to `C=CC(=O)N1CC[C@H](n2nc(C#Cc3ccc4csnc4c3)c3c(N)ncc(C(C)=O)c32)C1` [Example 89, (S)-1-(3-(7-acetyl-4-amino-3-(benzo[c]isothiazole-6-ethynylene)-1H-pyrazolo[4,3-c]pyridin-1-yl)pyrrolidine-1-methyl)prop-2-en-1-one], the IC50 at FGFR1 stood at 2.7 nM; against FGFR2, 0.4 nM; at FGFR2 V564F, 0.7 nM; in the test on NCI-H716 cells, 0.94 nM; in test [1], 1.6 nM.

As for `C=CC(=O)N1CC[C@H](n2nc(C#Cc3cc4ncn(C5CC5)c4cc3F)c3c(N)ncc(C(=O)C4CC4)c32)C1` [Example 49, (S)-1-(3-(4-amino-7-(cyclopropanecarbonyl)-3-((1-cyclopropyl-6-fluoro-1H-benzo[d]imidazol-5-yl)ethynyl)-1H-pyrazolo[4,3-c]pyridin-1-yl)pyrrolidin-1-yl)prop-2-en-1-one], the IC50 at FGFR1 was 3.9 nM; at FGFR2, 1.3 nM; at FGFR2 V564F, 1 nM; in the test with NCI-H716 cells, 1.92 nM; in test [1], 0.4 nM.

As for `C=CC(=O)N1CC[C@H](n2nc(C#Cc3ccc4c(c3)ncn4C)c3c(N)ncc(C(=O)C4CC4)c32)C1` [Example 65, (S)-1-(3-(4-amino-7-(cyclopropanecarbonyl)-3-((1-methyl-1H-benzo[d]imidazol-5-yl)ethynyl)-1H-pyrazolo[4,3-c]pyridin-1-yl)pyrrolidin-1-yl)prop-2-en-1-one], the IC50 against FGFR1 was found to be 2.8 nM; on FGFR2 it was 0.7 nM; against FGFR2 V564F it was 0.5 nM; in the test with NCI-H716 cells it was 1.5 nM; in test [1], 1.4 nM.

With `C=CC(=O)N1CC[C@H](n2nc(C#Cc3cc4ncn(CC)c4cc3F)c3c(N)ncc(C(=O)C4CC4)c32)C1` [Example 61, (S)-1-(3-(4-amino-7-(cyclopropanecarbonyl)-3-((1-ethyl-6-fluoro-1H-benzo[d]imidazol-5-yl)ethynyl)-1H-pyrazolo[4,3-c]pyridin-1-yl)pyrrolidin-1-yl)prop-2-en-1-one], the IC50 is 2.2 nM against FGFR1; 0.8 nM against FGFR2; 0.4 nM at FGFR2 V564F; 1.77 nM in the test on NCI-H716 cells; 1 nM in test [1].

With `C=CC(=O)N1CC[C@H](n2nc(C#Cc3ccn4ccnc4c3)c3c(N)ncc(C(=O)C4CC4)c32)C1` [Example 79, (S)-1-(3-(4-amino-7-(cyclopropanecarbonyl)-3-(imidazo[1,2-a]pyridine-7-ethynylene)-1H-pyrazolo[4,3-c]pyridin-1-yl)pyrrolidine-1-methyl)prop-2-en-1-one], the IC50 stood at 4.5 nM against FGFR1; 0.7 nM on FGFR2; 0.4 nM at FGFR2 V564F; 1.2 nM in the test with NCI-H716 cells; 1.1 nM in test [1].

For the molecule `C=CC(=O)N1CC[C@H](n2nc(C#Cc3cc4ncn(CC)c4cc3F)c3c(N)ncc(C(=O)CC)c32)C1` [Example 60, (S)-1-(3-(4-amino-3-((1-ethyl-6-fluoro-1H-benzo[d]imidazol-5-yl)ethynyl)-7-propionyl-1H-pyrazolo[4,3-c]pyridin-1-yl)pyrrolidin-1-yl)prop-2-en-1-one], the IC50 is 4.7 nM against FGFR1; 0.9 nM against FGFR2; 0.4 nM on FGFR2 V564F; 2.19 nM with NCI-H716 cells; 1.7 nM in test [1].

Consider `C=CC(=O)N1CC[C@H](n2nc(C#Cc3ccc4c(c3)ncn4CC)c3c(N)ncc(C(=O)C4CC4)c32)C1` [Example 58, (S)-1-(3-(4-amino-7-(cyclopropanecarbonyl)-3-((1-ethyl-1H-benzo[d]imidazol-5-yl)ethynyl)-1H-pyrazolo[4,3-c]pyridin-1-yl)pyrrolidin-1-yl)prop-2-en-1-one], for which the IC50 against FGFR1 turned out to be 3 nM; at FGFR2, 1.2 nM; against FGFR2 V564F, 0.5 nM; in the test on NCI-H716 cells, 1.94 nM; in test [1], 0.4 nM.
